Measurements as given in US20090258071A1, “COMPOSITIONS AND METHODS FOR PH TARGETED DRUG DELIVERY” (Labopharm, Inc., priority 2006, published 2009).

Assay: Dissolution of SN-38 in phosphate buffer pH 6.8
Format: physicochemical
Conditions: FIG. 4
Description: The kinetics of drug release can be determined by measuring the amount of drug released into phosphate buffer pH 6.8 at 37° C. via conventional high pressure liquid chromatography (HPLC).
The experiment was repeated in a solution at a higher pH, specifically pH 6.8. Briefly, the dissolution of SN-38 was measured either as SN-38 alone or from SN-38 containing micelles prepared as described in Example 2. The freeze dried cake produced in Example 2 was added to phosphate buffer pH 6.8 and the drug concentration was measured under the same conditions as the experiment using aqueous HCl at pH 1.2.

For CCc1c2c(nc3ccc(O)cc13)-c1cc3c(c(=O)n1C2)COC(=O)[C@]3(O)CC [SN-38, 7-ethyl-10-hydroxy-camptothecin], which dissolution behaviour is on record?
The dissolution behaviour was “rapidly precipitates from solution”.
